Reference: patent publication US20240158392A1 (Janssen Biotech, Inc., priority 2021, published 2024)

target: SIK2 (Homo sapiens, UniProt Q9H0K1); assay: SIK2 Enzymatic Assay High Version 2 (High ATP); assay type: biochemical; conditions: enzyme 6 nM, 6 mM ATP and 400 μM HDAC5tide (each 2× final concentration); 30 minutes pre-incubation, 2 hours; ADP-Glo Max luminescence; read-out: SIK2 high ATP IC50 (μM) (Test Example 2)
Method in brief: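 At room temperature, enzyme (6 nM, 2× final) was preincubated with compound for 30 min, then 6 mM ATP and 400 μM HDAC5tide (both 2× final) were added for 2 h. ADP formed was measured by ADP-Glo Max (2 h reagent, 1 h detection) using luminescence.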

SIK2, sequence (Q9H0K1 whole entry, species assumed): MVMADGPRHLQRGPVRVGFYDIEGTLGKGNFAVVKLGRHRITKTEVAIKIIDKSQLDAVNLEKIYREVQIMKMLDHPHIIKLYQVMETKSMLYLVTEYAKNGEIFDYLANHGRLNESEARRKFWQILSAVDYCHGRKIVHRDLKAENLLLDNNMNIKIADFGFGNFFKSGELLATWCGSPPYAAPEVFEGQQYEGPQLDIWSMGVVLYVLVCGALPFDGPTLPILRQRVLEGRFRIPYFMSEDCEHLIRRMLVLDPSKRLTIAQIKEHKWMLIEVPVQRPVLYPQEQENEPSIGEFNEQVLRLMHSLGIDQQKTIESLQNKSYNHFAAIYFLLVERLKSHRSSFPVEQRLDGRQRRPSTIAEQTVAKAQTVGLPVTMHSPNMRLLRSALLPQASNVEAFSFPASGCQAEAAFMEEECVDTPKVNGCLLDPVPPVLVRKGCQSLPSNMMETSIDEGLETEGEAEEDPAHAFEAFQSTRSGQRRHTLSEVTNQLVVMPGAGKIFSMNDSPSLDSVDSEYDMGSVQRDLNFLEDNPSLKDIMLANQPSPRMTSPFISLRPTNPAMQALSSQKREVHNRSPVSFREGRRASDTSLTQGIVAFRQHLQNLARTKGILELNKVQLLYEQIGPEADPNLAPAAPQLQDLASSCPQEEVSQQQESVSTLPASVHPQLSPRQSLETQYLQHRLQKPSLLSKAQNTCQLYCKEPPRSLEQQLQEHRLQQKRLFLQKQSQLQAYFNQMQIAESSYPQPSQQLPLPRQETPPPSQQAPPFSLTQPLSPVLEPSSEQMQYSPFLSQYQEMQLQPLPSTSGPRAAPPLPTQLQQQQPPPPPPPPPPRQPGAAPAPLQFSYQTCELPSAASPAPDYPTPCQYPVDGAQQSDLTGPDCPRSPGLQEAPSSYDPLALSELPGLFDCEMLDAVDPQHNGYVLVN

Point of comparison: Cc1cc(-c2ccn3nc(NC(=O)C4CC4)cc3c2)c(OC[C@@]23CN[C@@H](CO2)C3)cn1 [Example 248, N-[5-[2-methyl-5-[[(1R,4R)-5-oxa-2-azabicyclo[2.2.1]heptan-4-yl]methoxy]-4-pyridyl]pyrazolo[1,5-a]pyridin-2-yl]cyclopropanecarboxamide], IC50 0.00712 µM. Against it:
- CCNC(=O)c1c(OC)cc(Nc2cc3cc(-c4cc(C)ncc4O[C@H]4CC[C@H](O)CC4)ccn3n2)cc1OC [Example 243, N-ethyl-4-[[5-[5-(4-hydroxycyclohexoxy)-2-methyl-4-pyridyl]pyrazolo[1,5-a]pyridin-2-yl]amino]-2,6-dimethoxy-benzamide] — 4.9-fold higher, 0.0351 µM
- Cc1cc(Nc2cc3cc(-c4cc(C)ncc4OCC(C)(C)O)ccn3n2)nc(C(=O)N(C)C)c1 [Example 244, 6-[[5-[5-(2-hydroxy-2-methyl-propoxy)-2-methyl-4-pyridyl]pyrazolo[1,5-a]pyridin-2-yl]amino]-N,N,4-trimethyl-pyridine-2-carboxamide] — 3.1-fold higher, 0.0218 µM
- COc1cc(Nc2cc3cc(-c4cc(C)ncc4O[C@H]4CC[C@H](O)CC4)ccn3n2)cc(OC)c1C(=O)NC1CC1 [Example 245, N-cyclopropyl-4-[[5-[5-(4-hydroxycyclohexoxy)-2-methyl-4-pyridyl]pyrazolo[1,5-a]pyridin-2-yl]amino]-2,6-dimethoxy-benzamide] — 3.4-fold higher, 0.0239 µM
- COC(=O)c1ccc(Nc2cc3cc(-c4cc(C)ncc4O[C@H]4CC[C@H](O)CC4)ccn3n2)cc1OC [Example 246, methyl 4-[[5-[5-(4-hydroxycyclohexoxy)-2-methyl-4-pyridyl]pyrazolo[1,5-a]pyridin-2-yl]amino]-2-methoxy-benzoate] — 6.2-fold higher, 0.0441 µM
- CCn1nc(Nc2cc3cc(-c4cc(C)ncc4OCC(C)(C)O)ccn3n2)cc(C)c1=O [Example 247, 2-ethyl-6-[[5-[5-(2-hydroxy-2-methyl-propoxy)-2-methyl-4-pyridyl]pyrazolo[1,5-a]pyridin-2-yl]amino]-4-methyl-pyridazin-3-one] — the same, 0.00712 µM
- Cc1cc(-c2ccn3nc(NC(=O)C4CC4)cc3c2)c(OC[C@]23C[C@H](CO2)N(C)C3)cn1 [Example 249, N-[5-[2-methyl-5-[[(1R,4R)-2-methyl-5-oxa-2-azabicyclo[2.2.1]heptan-4-yl]methoxy]-4-pyridyl]pyrazolo[1,5-a]pyridin-2-yl]cyclopropanecarboxamide] — 3.3-fold higher, 0.0237 µM
- Cc1cc(-c2ccn3nc(NC(=O)[C@@H]4C[C@H]4C)cc3c2)c(OC[C@]23C[C@H](CO2)N(C)C3)cn1 [Example 250, (1R,2R)-2-methyl-N-[5-[2-methyl-5-[[(1R,4R)-2-methyl-5-oxa-2-azabicyclo[2.2.1]heptan-4-yl]methoxy]-4-pyridyl]pyrazolo[1,5-a]pyridin-2-yl]cyclopropanecarboxamide] — 3-fold higher, 0.0217 µM
- Cc1cnc(Nc2cc3cc(-c4cc(C)ncc4OC[C@]45CN[C@H](CO4)C5)ccn3n2)cn1 [Example 251, 5-[2-methyl-5-[[(1S,4S)-5-oxa-2-azabicyclo[2.2.1]heptan-4-yl]methoxy]-4-pyridyl]-N-(5-methylpyrazin-2-yl)pyrazolo[1,5-a]pyridin-2-amine] — 2.5-fold lower, 0.00284 µM
- Cc1cc(Nc2cc3cc(-c4cc(C(F)(F)F)ncc4OC[C@@]45CN[C@@H](CO4)C5)ccn3n2)nc(C)n1 [Example 252, N-(2,6-dimethylpyrimidin-4-yl)-5-[5-[[(1R,4R)-5-oxa-2-azabicyclo[2.2.1]heptan-4-yl]methoxy]-2-(trifluoromethyl)-4-pyridyl]pyrazolo[1,5-a]pyridin-2-amine] — 4-fold higher, 0.0284 µM
- Cc1cc(-c2ccn3nc(NC(=O)C4CC4)cc3c2)c(OC[C@]23CN[C@H](CO2)C3)cn1 [Example 253, N-[5-[2-methyl-5-[[(1S,4S)-5-oxa-2-azabicyclo[2.2.1]heptan-4-yl]methoxy]-4-pyridyl]pyrazolo[1,5-a]pyridin-2-yl]cyclopropanecarboxamide] — within 1.5-fold, 0.00479 µM
- Cc1cc(-c2ccn3nc(Nc4ccc(C)nn4)cc3c2)c(OC[C@@]23CN[C@@H](CO2)C3)cn1 [Example 254, 5-[2-methyl-5-[[(1R,4R)-5-oxa-2-azabicyclo[2.2.1]heptan-4-yl]methoxy]-4-pyridyl]-N-(6-methylpyridazin-3-yl)pyrazolo[1,5-a]pyridin-2-amine] — within 1.5-fold, 0.00637 µM
- Cc1cc(-c2ccn3nc(Nc4ccc(C5CC5)nn4)cc3c2)c(OC[C@@]23CN[C@@H](CO2)C3)cn1 [Example 255, N-(6-cyclopropylpyridazin-3-yl)-5-[2-methyl-5-[[(1R,4R)-5-oxa-2-azabicyclo[2.2.1]heptan-4-yl]methoxy]-4-pyridyl]pyrazolo[1,5-a]pyridin-2-amine] — within 1.5-fold, 0.00704 µM
- Cc1cc(-c2ccn3nc(Nc4ccc(C)nn4)cc3c2)c(OC[C@]23C[C@H](CO2)N(C)C3)cn1 [Example 256, 5-[2-methyl-5-[[(1R,4R)-2-methyl-5-oxa-2-azabicyclo[2.2.1]heptan-4-yl]methoxy]-4-pyridyl]-N-(6-methylpyridazin-3-yl)pyrazolo[1,5-a]pyridin-2-amine] — 2.8-fold higher, 0.0198 µM
- Cc1cnc(Nc2cc3cc(-c4cc(C)ncc4OC[C@@]45CN[C@@H](CO4)C5)ccn3n2)cn1 [Example 257, 5-[2-methyl-5-[[(1R,4R)-5-oxa-2-azabicyclo[2.2.1]heptan-4-yl]methoxy]-4-pyridyl]-N-(5-methylpyrazin-2-yl)pyrazolo[1,5-a]pyridin-2-amine] — 1.6-fold lower, 0.00446 µM
- Cc1cc(-c2ccn3nc(Nc4cc(C)nc(C)n4)cc3c2)c(OCC(O)(C(F)(F)F)C(F)(F)F)cn1 [Example 259, 2-[[4-[2-[(2,6-dimethylpyrimidin-4-yl)amino]pyrazolo[1,5-a]pyridin-5-yl]-6-methyl-3-pyridyl]oxymethyl]-1,1,1,3,3,3-hexafluoro-propan-2-ol] — 2.1-fold higher, 0.0153 µM
- Cc1cc(-c2ccn3nc(Nc4ccc5nccn5n4)cc3c2)c(OCC(C)(C)O)cn1 [Example 260, 1-[[4-[2-(imidazo[1,2-b]pyridazin-6-ylamino)pyrazolo[1,5-a]pyridin-5-yl]-6-methyl-3-pyridyl]oxy]-2-methyl-propan-2-ol] — 2.6-fold higher, 0.0183 µM
- Cc1cc(-c2ccn3nc(Nc4cc(C)nc(C(C)(C)C)n4)cc3c2)c(OCC(C)(C)O)cn1 [Example 261, 1-[[4-[2-[(2-tert-butyl-6-methyl-pyrimidin-4-yl)amino]pyrazolo[1,5-a]pyridin-5-yl]-6-methyl-3-pyridyl]oxy]-2-methyl-propan-2-ol] — 3.4-fold higher, 0.0239 µM
- Cc1cc(-c2ccn3nc(Nc4cc(C)nc(C)n4)cc3c2)c(OCC(C)(C)C#N)cn1 [Example 262, 3-[[4-[2-[(2,6-dimethylpyrimidin-4-yl)amino]pyrazolo[1,5-a]pyridin-5-yl]-6-methyl-3-pyridyl]oxy]-2,2-dimethyl-propanenitrile] — 3.1-fold lower, 0.00231 µM
- Cc1cc(-c2ccn3nc(Nc4cc(C)c(=O)n(CC5CC5)n4)cc3c2)c(OCC(C)(C)O)cn1 [Example 265, 2-(cyclopropylmethyl)-6-[[5-[5-(2-hydroxy-2-methyl-propoxy)-2-methyl-4-pyridyl]pyrazolo[1,5-a]pyridin-2-yl]amino]-4-methyl-pyridazin-3-one] — 1.9-fold lower, 0.00366 µM
- Cc1cc(-c2ccn3nc(Nc4cc(C)nc(C)n4)cc3c2)c(O[C@H]2CC[C@H](S(C)(=O)=O)CC2)cn1 [Example 266, N-(2,6-dimethylpyrimidin-4-yl)-5-[2-methyl-5-(4-methylsulfonylcyclohexoxy)-4-pyridyl]pyrazolo[1,5-a]pyridin-2-amine] — 2.1-fold lower, 0.00338 µM
- COc1cc(Nc2cc3cc(-c4cc(C)ncc4OCC(C)(C)C#N)ccn3n2)cc(OC)c1C(=O)NC1CC1 [Example 268, 4-[[5-[5-(2-cyano-2-methyl-propoxy)-2-methyl-4-pyridyl]pyrazolo[1,5-a]pyridin-2-yl]amino]-N-cyclopropyl-2,6-dimethoxy-benzamide] — 5.2-fold lower, 0.00138 µM
- Cc1cc(-c2ccn3nc(Nc4cc(C)c(=O)n(C)n4)cc3c2)c(OCC(C)(C)C#N)cn1 [Example 269, 3-[[4-[2-[(1,5-dimethyl-6-oxo-pyridazin-3-yl)amino]pyrazolo[1,5-a]pyridin-5-yl]-6-methyl-3-pyridyl]oxy]-2,2-dimethyl-propanenitrile] — 4.7-fold lower, 0.00153 µM
- COc1ccccc1COc1cnc(C)cc1-c1ccn2nc(Nc3cc(C)nc(C)n3)cc2c1 [Example 271, N-(2,6-dimethylpyrimidin-4-yl)-5-[5-[(2-methoxyphenyl)methoxy]-2-methyl-4-pyridyl]pyrazolo[1,5-a]pyridin-2-amine] — 3.3-fold higher, 0.0234 µM
- Cc1cc(-c2ccn3nc(Nc4cc(C)nc(C)n4)cc3c2)c(OCc2cccc(O)c2)cn1 [Example 272, 3-[[4-[2-[(2,6-dimethylpyrimidin-4-yl)amino]pyrazolo[1,5-a]pyridin-5-yl]-6-methyl-3-pyridyl]oxymethyl]phenol] — within 1.5-fold, 0.00876 µM
- CCC1(COc2cnc(C)cc2-c2ccn3nc(Nc4cc(C)nc(C)n4)cc3c2)COC1 [Example 273, N-(2,6-dimethylpyrimidin-4-yl)-5-[5-[(3-ethyloxetan-3-yl)methoxy]-2-methyl-4-pyridyl]pyrazolo[1,5-a]pyridin-2-amine] — 5.2-fold higher, 0.037 µM
- Cc1cc(-c2ccn3nc(Nc4cc(C)nc(C)n4)cc3c2)c(OCC2(CO)COC2)cn1 [Example 274, [3-[[4-[2-[(2,6-dimethylpyrimidin-4-yl)amino]pyrazolo[1,5-a]pyridin-5-yl]-6-methyl-3-pyridyl]oxymethyl]oxetan-3-yl]methanol] — 4.1-fold higher, 0.0291 µM
- Cc1cc(-c2ccn3nc(Nc4cc(C)nc(C)n4)cc3c2)c(OCC2(C#N)COC2)cn1 [Example 275, 3-[[4-[2-[(2,6-dimethylpyrimidin-4-yl)amino]pyrazolo[1,5-a]pyridin-5-yl]-6-methyl-3-pyridyl]oxymethyl]oxetane-3-carbonitrile] — 4.4-fold higher, 0.0313 µM
- Cc1cc(-c2ccn3nc(Nc4cc(C)nc(C)n4)cc3c2)c(O[C@H]2CCNC2)cn1 [Example 276, N-(2,6-dimethylpyrimidin-4-yl)-5-[2-methyl-5-[(3S)-pyrrolidin-3-yl]oxy-4-pyridyl]pyrazolo[1,5-a]pyridin-2-amine] — within 1.5-fold, 0.00921 µM
